Experimental data published in patent publication US20180200323A1, “USE OF TETRAPEPTIDE -3 GEKG OR PENTAPEPTIDE -3 GEKGF FOR TREATING DEGENERATIVE JOINT DISEASE” (priority 2017, published 2018).
Entries after “also recorded” stand apart in the source; their conditions may differ.

How the values were obtained:
[1] = system: arthrodial cartilage of the knee joint; assay: Rabbit knee cartilage defect model: observation by bare eyes and histomorphometry; type: in vivo, New Zealand white rabbits
Experimental: (§1) Fifteen (15) healthy adult New Zealand white rabbits were randomly divided into three (3) groups: a normal control group (Group A), a model control group (Group B) and a test group subject to intra-articular injection of a test peptide (Group C), with five (5) rabbits included in each of the groups. Fasting was conducted within four hours before surgical operations. Ketamine (10 mg/kg) and atropine (0.2 mg/kg) were injected in the muscle of each rabbit. After anesthesia took effect, each rabbit was confined to an operating table. An 8 cm-long longitudinal scission was made in the back of each knee before the skin was lifted. From the back of the knee, the articular capsule and synovial were opened. Then, the knee was bent for 90° to expose the cartilage at a lower end of the femur. Two cylindrical cutouts of 3 mm in diameter and 3 mm in depth were made. Coagulation was removed from each of the cutouts. The joint cavity was washed with a sterile saline solution. Stitches were made for each section. After the surgical operation, injection of penicillin was conducted against infection for a week. After five (5) days, each rabbit was able to eat and stand normally.
(§2) Two (2) weeks after the surgical operation, the rabbits of Group A and Group B were not treated, whereas the rabbits of Group C were subject to intra-articular injection of 250 ppm/kg of tetrapeptide-3 GEKG once for every seven (7) days, and the injection lasted for twelve (12) weeks. Articular injection of 0.5 ml of saline was executed, and then 0.2 ml of synovial liquid was collected. The articular capsule was cut and opened, synovial was removed, and an entire tibial joint was taken. Arthropathy in arthrodial cartilage was observed by bare eyes and also via surgical lens. Slices were taken, dyed by hematoxylin and eosin stain (HE Stain) and toluidine blue, and then observed in an optical microscope.

synovial liquid = assay: Rabbit knee cartilage defect model: biochemical indicators (NO, SOD, MDA) in synovial liquid; type: in vivo, New Zealand white rabbits
Source text: As used in the present invention, all of the methods for measuring SOD, NO and MDA in synovial liquid and collagen and proteoglycan in extracellular matrix of cartilage have been known and conventionally used in the art.
as §1, §2

[2] = system: cartilage cells of the growth plate; assay: Cultivated cartilage cells: DNA content, collagen and proteoglycan production; type: cell-based, rabbits; conditions: 250 ppm
Experimental: Firstly, cartilage cells of the growth plate of the same rabbits were taken and continuously cultivated. The cultivated cells were divided into three groups. In Group I, only 250 ppm of tetrapeptide-3 GEKG was added. In Group II, only 100 ng/ml of collagen was added. In Group III, 250 ppm of tetrapeptide-3 GEKG and 100 ng/ml of collagen were added. A negative control group was also used. After new tissues of cartilage grew at a lower portion of a centrifuge tube, the new tissues were transferred to a 24-well plate for continuing cultivation, wherein the culture medium was replaced for every 2 days. During the cultivation, samples were collected after three (3), seven (7) and fourteen (14) days, and then were analyzed.
For the histological and histochemical measurements, samples were collected, and HE dying and immunochemical measurement (S-P method) were executed.
The content of DNA in the cells of cartilage was determined by the method of Hoechst 33258.
Extracellular matrix of cartilage primarily comprises collagen and proteoglycan composed of glycosaminoglycan and core protein, in addition to water. The content of the matrix and its status of the metabolism were quantitatively analyzed by determining a level of the collagen and proteoglycan in the new tissues of cartilage.
The synthesis of the collagen of the cartilage is measured by the hydroxyproline method. Because the content of hydroxyproline in the collagen was substantially constant (about 10% by weight), an amount of hydroxyproline could be used to analyze the amount of the collagen of the cartilage by using a commercial kit including the hydroxyproline reagent. The content of the collagen in the samples was calculated.

[3] = Group C vs model control group B
[4] = Group C: intra-articular injection of 250 ppm/kg once every 7 days for 12 weeks

With tetrapeptide-3 GEKG the “Morphosis of the arthrodial cartilage compared with Group B” value [1, 3] was “significant improvement”, the “Histomorphometric observation of repaired tissues” value ([1]; Group C, HE and toluidine blue stain, optical microscope) was “the repaired tissues were not substantially different from the normal tissues of the knee joint; also recorded: considerably repaired the damaged tissues of cartilage” and the “Repair of knee joint injuries observed by bare eyes” value ([1]; Group C, after 12 weeks of intra-articular injection, 250 ppm/kg) was “the injuries were completely repaired”. The “MDA level in synovial liquid (change in words)” value (synovial liquid; [3]) was “considerably reduced”, the “SOD level in synovial liquid (change in words)” value (synovial liquid; [3]) was “considerably increased” and the “MDA level in synovial liquid” value (synovial liquid; [4]) was 13.12 ± 2.28 c/mol · L^−1. The “NO level in synovial liquid” value (synovial liquid; [4]) was 20.76 ± 2.88 c/mol · L^−1, the “SOD level in synovial liquid” value (synovial liquid; [4]) was 6.60 ± 1.37 c/mol · L^−1 and the “Hyperosteogeny of the cells of the cartilage” value ([2]; samples after 3, 7 and 14 days) was “considerable hyperosteogeny”. For the same substance, the “Content of DNA of the cells of the cartilage (Hoechst 33258)” value ([2]; vs control group, FIG. 1) was “statistically different from that of the control group”, the “Production of collagen of extracellular matrix of cartilage (hydroxyproline method)” value ([2]; vs control group, FIG. 2) was “considerably increased” and the “Production of proteoglycan of extracellular matrix of cartilage” value ([2]; vs control group, FIG. 3) was “considerably increased”.
